The values that follow come from patent publication US7045307B2, “Method for measuring no synthase activity” (Gruenenthal GmbH, priority 2000, dated 2006).

In assay [1] the target is T1, isolated nNOS from rat cerebella (Rattus norvegicus, UniProt P29476). Kind of assay: Arginine assay according to the invention (HTS NOS assay, cation exchanger filter MTP).
For assay [2], the target named is T1, isolated nNOS from rat cerebella. Kind of assay: Citrulline assay according to Bredt and Snyder (1990), separation by column chromatography. The conditions noted are these: [3H]arginine 50 nM. It counts as biochemical. From the text:
On completion of the reaction the enzyme mixtures are passed over separate cation exchange columns. Elution of the [^3H]L-citrulline and determination of the eluates then takes place on a β-counter. The disadvantage of this method is that column chromatography has to take place separately for each enzyme mixture (e.g. 96 chromatography columns are needed per 96 well microtiter plate).
The precipitate is discarded.
The separation was effected by means of column chromatography.

Some results are limits rather than exact numbers.

On to `O=[N+]([O-])c1cccc2cn[nH]c12` [7-Nitroindazole, 7-nitroindazole], for which, in assay [1] (read-out: NOS inhibition), the inhibition at 10 µM is around 50%.

Take `FC(F)(F)c1ccccc1-n1ccnc1` [TRIM, 1-(2-trifluormethylphenyl)imidazole]: the concentration for half-maximal inhibition (IC50) in assay [1] (read-out: IC50 value, Arginine assay according to the invention as in Example 4, [3H]arginine 50 nM, nNOS from rat cerebella, 96 well cation exchanger filter MTP) was above 100 µM; in assay [2], above 100 µM.

With `C=CCC(=N)NCCC[C@H](N)C(=O)O` [Vinyl L-NIO, N5-(1-imino-3-butenyl)-L-ornithine], the IC50 in assay [1] came to 5.02 µM; in assay [2] it was 5.57 µM.
